Measured values reported in patent US10111842B2, “Eutectic solvents and uses thereof” (UNIVERSITY OF OSLO, priority 2014, dated 2018).
Read-outs that look alike come from different tables or passages of the source.

Experiments:
[1] = system: C. albicans (ATCC CRM-10231); experiment: Antifungal toxicity studies, blue light 27 J/cm^2 or dark (Example 8); assay type: cell-based, Candida albicans
Description: Briefly, the components of each NADES (see Table 13) were mixed and dissolved in a round flask with 50 ml of warm water ( 50° C.) before evaporation of the solvent at 45° C. for 15 min with a rotatory evaporator. The pure […] 35 and NADES 39 were mixed undiluted or after dilution 1:50 with phosphate buffered saline (PBS, Lonza, Verviers, Belgium) with the yeast suspension (1:1) in the toxicity studies. […] The concentrations of the excipients were the same as in the respective NADES after evaporation of unbound water. The solutions were diluted totally 1:1 or 1:100 with PBS and yeast suspension in the toxicity studies. […] The overnight cultures were centrifuged (4000 g, 22° C., 10 min), the medium replaced and diluted with PBS to OD600 0.1.

[2] = system: Enterococcus faecalis (ATCC 19433); experiment: Bacterial studies, blue light 9.5 J/cm^2 or dark, drop plate CFU (Examples 4-6); assay type: cell-based
Description: (§1) Briefly, the components were mixed and dissolved in warm water (˜50° C.) before evaporation of the solvent at 45° C. for 15 min with a rotatory evaporator. The resulting NADES were transferred to polypropylene tubes with a tight cap. The individual components of each NADES were also prepared as solutions in MilliQ water in a concentration similar to the concentration in the final NADES preparation. All samples were diluted 1:1 with bacterial suspension (OD600 0.03) or 1:50, 1:100 and 1:200 with phosphate buffered saline (PBS, pH 7.4, Lonza, Verviers, Belgium) prior to dilution 1:1 with the bacterial suspension immediately before the bacterial studies.
(§2) The overnight cultures were centrifuged (4000 g, 22° C., 10 min), the medium replaced and diluted with PBS to OD600 0.03. The bacterial suspensions were mixed 1:1 with the samples described in the previous paragraph. A volume of 200 μl from each sample was transferred to the first and seventh well on each row on a 96 well plate (Nunclon sterile 96 well plate with lid, Thermo Fischer Scientific, Waltham, Mass.). Two identical plates were made each time, one for light treatment and one for dark controls. The plates containing E. faecalis or S. aureus samples were incubated for 10 min (37° C.), irradiated with blue light for 10 min (corresponding to 9.5 J/cm^2±10%) and incubated again for 10 min (37° C.). The plates containing E. coli samples were incubated for 30 min (37° C.), irradiated with blue light for 30 min (corresponding to 27 J/cm^2±10%) and incubated again for 30 min (37° C.). The plates containing the dark controls were treated similarly, but covered with aluminium foil during the irradiation period and placed beside the irradiation chamber. […] After treatment, the samples were diluted according to the 6×6 drop plate procedure, modified to 4×4 (each treatment was performed with four parallels). A volume of 15 μl from each dilution was then plated onto TSB agar plates, left to dry for a few minutes and incubated overnight (37° C.). Viable colony forming units (CFU)/ml were calculated by counting the CFUs, multiplying with the dilution factor and dividing by the application volume.
(§3) Briefly, the components of each NADES (see Table 7) were mixed and dissolved in a round flask with 50 ml of warm water (˜50° C.) before evaporation of the solvent at 45° C. for 15 min with a rotatory evaporator. TMAP (Frontier Scientific, Inc., Logan, Utah, USA) was then added to each NADES. […] The final concentration of TMAP was 1 nM. Samples of TMAP were also prepared in purified water (MilliQ) to be 1 nM after dilution 1:200 with PBS (pH 7.4, Lonza, Verviers, Belgium) or with a 6.8 mM citric acid solution (pH ˜4) and bacterial suspension.
(§4) TCPP (Frontier Scientific, Inc., Logan, Utah, USA) was added to each NADES. […] The final TCPP concentrations were 0.5 nM-1 μM. Samples of TCPP were also prepared in ethanol to be 1 nM-1 μM after dilution 1:200 with PBS (pH 7.4, Lonza, Verviers, Belgium) or with a 6.8 mM citric acid solution (pH ˜4) and bacterial suspension.

[3] = system: Escherichia coli (ATCC 25922); experiment: Bacterial studies, blue light 27 J/cm^2 or dark, drop plate CFU (Examples 4-6); assay type: cell-based; settings: for surviving colony forming units per ml / surviving colony forming units: E. coli
Description: as §1, §2, §3, §4

[4] = system: Staphylococcus aureus (strain Newman); experiment: Bacterial studies, blue light 9.5 J/cm^2 or dark, drop plate CFU (Examples 4-6); assay type: cell-based
Description: as §1, §2, §3, §4

[5] = system: S. epidermidis (ATCC 35984); experiment: Phototoxicity studies, blue light 9.5 J/cm^2 or dark (Example 7); assay type: cell-based, Staphylococcus epidermidis
Description: as §2
(§5) The concentrations were adjusted give a final concentration of 1-20 nM porphyrin in the bacterial suspension after dilution with PBS (see Table 9). Aqueous solutions of 2.7 M citric acid, 2.3 M xylitol, 2.5 M sucrose, 5 M choline chloride and pure NADES, respectively, were used to investigate the toxicity of the individual compounds and NADES without a photosensitiser. The concentrations of the excipients were the same as in the respective NADES after evaporation of unbound water. The solutions were diluted totally 1:200 (or more) in the bacterial studies.
(§6) The treatments were performed with four parallels.
(§7) Gram-positive bacteria are generally considered to be more susceptible to photodynamic therapy than Gram-negative bacteria. Therefore, S. epidermidis was incubated for 10 min (37° C.), irradiated with blue light for 10 min (9.5 J/cm^2) and incubated again for 10 min while K. pneumoniae and P. aeruginosa were incubated for 30 min (37° C.), irradiated with blue light for 30 min (27 J/cm^2) and incubated again for 30 min.

[6] = system: K. pneumoniae (ATCC 31844); experiment: Phototoxicity studies, blue light 27 J/cm^2 or dark (Example 7); assay type: cell-based, Klebsiella pneumoniae; settings: ±SD, n = 4; for % survival (27 J/cm^2): Dilution 1:200, blue light; for % survival (dark): Dilution 1:200, no irradiation
Description: as §2, §5, §6, §7

[7] = system: P. aeruginosa (ATCC 9027); experiment: as above; assay type: cell-based, Pseudomonas aeruginosa; settings: for % survival (27 J/cm^2): Dilution 1:200, blue light; for % survival (27 J/cm^2) / % survival (dark): ±SD, n = 4; for % survival (dark): Dilution 1:200, no irradiation
Description: as §2, §5, §6, §7

[8] = 2.1 M fructose, […] xylitol, […] sucrose, 5 M choline chloride diluted 1:1 or 1:100, dark or light, p>0.05
[9] = Dilution 1:200, blue light, ±SD, n = 4
[10] = Dilution 1:200, no irradiation, ±SD, n = 4
[11] = 1 nM TMAP in the citric acid solution, light
[12] = 1 nM TMAP in the diluted NADES 14, light

O=C(CO)[C@@H](O)[C@H](O)[C@H](O)CO [fructose, D-(−)-fructose]
reduction in viable C. albicans [1, 8]: No significant reduction | toxicity of individual NADES component to E. faecalis [2]: not toxic

O=C(O)/C=C\C(=O)O [Maleic acid]
toxicity to E. coli ([3]; 3.1 M solution, even at dilution 1:400): highly toxic | eradication of E. faecalis ([2]; dilutions 1:1 to 1:400 with PBS (maleic acid 3.1 M before dilution)): complete eradication | toxicity to S. aureus ([4]; dilution 1:400): no longer toxic | eradication of S. aureus ([4]; dilution ratios 1:1 up to 1:200, total treatment 30 min): complete eradication

O=C(O)CC(O)C(=O)O (racemic) [Malic acid, DL-malic acid]
toxicity to E. coli ([3]; 2.1 M solution, 1:1 dilution and 1:100 dilution): highly toxic | photoinactivation of E. faecalis ([2]; dilution 1:1 and 1:100 with PBS, blue light): complete photoinactivation | toxicity / eradication of S. aureus ([4]; dilution 1:1 with bacterial suspension): toxic | toxicity to S. aureus ([4]; dilution 1:100): not toxic

OC[C@@H](O)[C@H](O)[C@@H](O)CO [Xylitol]
toxicity of NADES 26 components to E. coli ([3]; choline chloride 5 M, xylitol […]): non-toxic | reduction in viable C. albicans [1, 8]: No significant reduction | % survival (9.5 J/cm^2) [5, 9]: 118 ± 12% | % survival (dark) [5, 10]: 98 ± 10% | % survival (27 J/cm^2) [6]: 74 ± 17% | % survival (dark) [6]: 72 ± 19% | % survival (27 J/cm^2) [7]: 143 ± 17% | % survival (dark) [7]: 140 ± 19% | toxicity to P. aeruginosa ([7]; individual components of NADES 35, dilution 1:800): not toxic at all

tetra-(4-carboxyphenyl)-porphine [TCPP]
phototoxicity to E. coli ([3]; 1 nM TCPP): not phototoxic | phototoxicity to E. coli ([3]; 40 nM TCPP in pure PBS): not phototoxic | photoinactivation of E. coli ([3]; 0.6 μM TCPP in NADES 40): complete photoinactivation | surviving colony forming units per ml ([3]; 0.6 μM TCPP in citric acid solution, light): 20 000 colony forming units per ml | eradication of E. faecalis after photodynamic treatment ([2]; 1 nM TCPP in acidic NADES 3): almost complete eradication | eradication of E. faecalis after photodynamic treatment ([2]; 1 nM TCPP in acidic NADES 14): almost complete eradication | eradication of E. faecalis after photodynamic treatment ([2]; 1 nM TCPP in acidic NADES 40): almost complete eradication | eradication of E. faecalis after photodynamic treatment ([2]; 1 nM TCPP in citric acid solution): almost complete eradication | phototoxicity to E. faecalis ([2]; 1 nM TCPP in pure PBS): not very phototoxic | eradication of E. faecalis after light treatment ([2]; 1 μM TCPP in neutral NADES 26): complete eradication | surviving colony forming units ([2]; 1 μM TCPP in pure PBS, light, E. faecalis): approximately 300 colony forming units | viable S. aureus after treatment ([4]; 1 nM TCPP in NADES 3, light): no viable bacteria detected | phototoxicity to S. aureus ([4]; 1 nM TCPP in pure PBS): killed half of the viable bacteria | photoinactivation of S. aureus ([4]; TCPP up to 1 μM in PBS): did not result in complete photoinactivation | photoinactivation of S. aureus ([4]; TCPP up to 1 μM in pH-neutral NADES 26): did not result in complete photoinactivation

OC[C@H]1O[C@@](CO)(O[C@H]2O[C@H](CO)[C@@H](O)[C@H](O)[C@H]2O)[C@@H](O)[C@@H]1O [Sucrose]
reduction in viable C. albicans [1, 8]: No significant reduction | % survival (9.5 J/cm^2) [5, 9]: 134 ± 14% | % survival (dark) [5, 10]: 113 ± 5% | % survival (27 J/cm^2) [6]: 84 ± 18% | % survival (dark) [6]: 124 ± 9% | % survival (27 J/cm^2) [7]: 98 ± 19% | % survival (dark) [7]: 204 ± 22%

C[N+](C)(C)CCO.[Cl-] [Choline chloride]
toxicity of NADES 26 components to E. coli [3]: non-toxic | reduction in viable C. albicans [1]: No significant reduction | % survival (9.5 J/cm^2) [5]: 124 ± 7% | % survival (dark) [5]: 104 ± 12% | toxicity of individual NADES component to E. faecalis [2]: not toxic

tetra-(4-trimethylanilinum)-porphine tetrachloride [TMAP]
viable E. coli after photodynamic treatment ([3]; 1 nM TMAP in NADES 35, dilution 1:800 with PBS): no viable | phototoxicity to E. coli ([3]; 1 nM TMAP in PBS, p>0.05): not enough to make this porphyrin significantly phototoxic | phototoxicity to E. coli ([3]; 1 nM TMAP in neutral NADES 26 (1:200), p>0.05): not enough to make this porphyrin significantly phototoxic | phototoxicity to E. coli ([3]; 1 nM TMAP in neutral NADES 39 (1:100), p>0.05): not enough to make this porphyrin significantly phototoxic | surviving colony forming units [3, 11]: 0.2% | surviving colony forming units per ml [3, 11]: 10 000 colony forming units per ml | surviving colony forming units [3, 12]: 0.2% | surviving colony forming units per ml [3, 12]: 10 000 colony forming units per ml | toxicity to C. albicans [1]: not toxic | photoinactivation of S. epidermidis [5]: did not result in complete photoinactivation | phototoxicity to P. aeruginosa ([7]; 1 nM or 5 nM TMAP in PBS): not phototoxic | increase of phototoxicity compared to the citric acid solution ([2]; 1 nM TMAP in NADES 14 (final dilution 1:400), E. faecalis): 35 times
